AC50, EC50 and IC50 data for four compounds are collected here from ChEMBL document CHEMBL1201862, “PubChem BioAssay data set” (2004).

Calls of active or inactive are those of the source. Bounds are passed on as bounds.

The target of one experiment is CAAX prenyl protease 1 (Saccharomyces cerevisiae S288c, UniProt P47154). Kind of experiment: yeast CAAX protease Ste24 inhibition – biochemical, S. cerevisiae, plate reader, cherry-pick, dose response (AID 488815).
Experiment [1] in a line: reduction of Shn3 3'UTR-driven luciferase in osteoblasts – cell-based, Clone20 osteoblasts, firefly luciferase, cherry-picked, dose response (AID 624132).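 Also: firefly luciferase luminescence from reporter carrying the Shn3 3'UTR in osteoblasts.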 The format is functional.
The subject of a further experiment is INS1. Kind of experiment: INS-1E survival protection against cytokine death – cell-based, luminescence, retest, dose response (AID 449756).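 Also: cell death triggered by IL-1 beta plus TNF-alpha plus IFN-gamma mixture; protective hits raise ATP signal compared with cytokine alone wells.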 The class given is functional. To be noted: Rattus norvegicus.
The nature of experiment [2]: non-specific 3'UTR reporter inhibition in Clone20-Shn3RL – cell-based, Renilla luciferase, cherry-picked, counter-screen for Shn3 inhibitor project, dose response (AID 624133). The format is functional. In general terms: Counterscreens check selectivity or assay interference.
Experiment [3] addresses G-protein coupled receptor 55 (Homo sapiens, UniProt Q9Y2T6). As to the kind of experiment: selective activators of receptor GPR55 – imaging, U2OS cells, beta-arrestin-GFP redistribution, primary screen (AID 1961). The format is functional.
The nature of experiment [4]: loss of viability in HepG2 cells – cell-based, CellTiter-Glo, cherry-picked, cytotoxicity control for Shn3 inhibitor project, dose response (AID 624134). The class given is functional.
In the next experiment the target is T1, CAAX prenyl protease 2 (Saccharomyces cerevisiae S288c, UniProt Q03530).
T1 sequence (Q03530 whole entry): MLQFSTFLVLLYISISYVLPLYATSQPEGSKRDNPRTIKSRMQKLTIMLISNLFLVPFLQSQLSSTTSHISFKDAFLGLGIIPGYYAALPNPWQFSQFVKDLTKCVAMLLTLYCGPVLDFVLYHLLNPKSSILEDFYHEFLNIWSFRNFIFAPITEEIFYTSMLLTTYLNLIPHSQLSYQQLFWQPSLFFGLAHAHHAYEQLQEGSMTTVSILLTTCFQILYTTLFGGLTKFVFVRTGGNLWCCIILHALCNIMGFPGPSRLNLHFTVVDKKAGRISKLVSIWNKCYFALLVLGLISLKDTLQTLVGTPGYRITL
The class given is biochemical.

The target of experiment [5] is T2, Endoribonuclease toxin MazF (Escherichia coli K-12, UniProt P0AE70). As to the kind of experiment: substrate-only fluorescence increase artefacts – biochemical, single-stranded RNase substrate, counter-screen for MazEF activator project, dose response (AID 588502). The class given is functional.
Experiment [6] addresses T2, Endoribonuclease toxin MazF. As to the kind of experiment: activation of MazEF endoribonuclease cleavage – biochemical, fluorescence, single-stranded RNA substrate, uHTS hits, dose response (AID 588481). The format is functional.
Experiment [7] addresses T3, Corticotropin-releasing factor receptor 2/Corticotropin-releasing factor-binding protein (Homo sapiens, UniProt P24387+Q13324).
T3 sequence (Q13324 whole entry): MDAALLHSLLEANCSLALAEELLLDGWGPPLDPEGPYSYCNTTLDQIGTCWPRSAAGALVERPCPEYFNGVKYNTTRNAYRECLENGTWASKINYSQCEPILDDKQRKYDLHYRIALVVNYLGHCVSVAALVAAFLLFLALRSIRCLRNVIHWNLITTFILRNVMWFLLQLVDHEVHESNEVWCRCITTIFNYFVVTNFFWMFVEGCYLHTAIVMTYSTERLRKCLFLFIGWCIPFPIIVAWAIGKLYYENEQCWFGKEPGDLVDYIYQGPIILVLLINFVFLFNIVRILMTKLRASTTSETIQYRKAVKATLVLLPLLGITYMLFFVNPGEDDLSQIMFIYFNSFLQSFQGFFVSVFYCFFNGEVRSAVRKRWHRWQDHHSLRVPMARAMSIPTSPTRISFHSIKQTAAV
T3 sequence (P24387 whole entry): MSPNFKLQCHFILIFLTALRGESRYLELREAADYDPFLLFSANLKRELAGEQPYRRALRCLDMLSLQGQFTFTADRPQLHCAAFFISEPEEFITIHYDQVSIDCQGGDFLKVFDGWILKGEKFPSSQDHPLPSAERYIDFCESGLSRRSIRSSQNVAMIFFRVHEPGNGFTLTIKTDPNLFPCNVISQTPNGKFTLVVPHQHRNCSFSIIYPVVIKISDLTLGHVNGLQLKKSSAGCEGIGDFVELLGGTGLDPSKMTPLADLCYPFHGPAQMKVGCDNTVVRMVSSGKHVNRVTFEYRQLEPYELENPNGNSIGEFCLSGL
As to the kind of experiment: activators of CRF receptor 2 with binding protein – uHTS hits, confirmation (AID 602473). The class given is functional. To be noted: read-out: EC50_Mean.

A short description of experiment [8]: HPDE-C7 pancreatic duct cell viability loss – fluorescence, HTS (AID 430). The class given is functional, cell-based. To be noted: Homo sapiens.
Experiment [9] in a line: viability loss of HPDE-C7K cells – cell-based, fluorescence, HTS, primary screen (AID 431). The format is functional. The settings on record: Homo sapiens.
Experiment [10] is described as follows: viability of PTEN-deleted HCT116 cells – cell-based, HCT116 PTEN knockout, dose response (AID 1047).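 Also: HCT116 colon tumor cells with PTEN knocked out; cells exposed to compound for 60 hours before readout; potency for loss of cell viability measured by luminescence.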 The format is functional.
Experiment [11] in a line: viability of HCT116 lacking mutant beta-catenin – cell-based, human colon tumor, dose response (AID 1045).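 Also: HCT116 colon tumor cells with beta catenin knocked out; cells exposed to compound for 60 hours.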 The format is functional.
In a further experiment the test system is HEK293. Kind of experiment: EBV LMP1 TES2 canonical NF-kB signalling blockers – cell-based, HEK293, luciferase, cherry-pick, dose response (AID 588343). The class given is functional. To be noted: Homo sapiens.
Experiment [12] has as its target Latent membrane protein 1 (Human herpesvirus 4 (strain B95-8), UniProt P03230). As to the kind of experiment: LMP1 TES1 pathway selectivity over dsRED control – imaging, HEK293T, dual-color eGFP/dsRED, cherry-picks, selectivity assay for LMP1 NF-kB inhibitor project, dose response (AID 588398). The class given is functional, cell-based.
Experiment [13] addresses Dual specificity protein phosphatase 3 (Homo sapiens, UniProt P51452). As to the kind of experiment: SAR VHR1 Fluorescent Assay for In Vitro dose response studies Set 3. [Related pubchem assays (depositor defined):AID1654, AID1661, AID1878]. The format is functional.

T2 sequence (P0AE70 whole entry): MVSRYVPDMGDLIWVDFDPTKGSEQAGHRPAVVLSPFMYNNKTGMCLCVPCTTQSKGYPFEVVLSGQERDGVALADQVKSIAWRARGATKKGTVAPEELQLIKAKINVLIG
Dual specificity protein phosphatase 3, sequence (P51452 whole entry): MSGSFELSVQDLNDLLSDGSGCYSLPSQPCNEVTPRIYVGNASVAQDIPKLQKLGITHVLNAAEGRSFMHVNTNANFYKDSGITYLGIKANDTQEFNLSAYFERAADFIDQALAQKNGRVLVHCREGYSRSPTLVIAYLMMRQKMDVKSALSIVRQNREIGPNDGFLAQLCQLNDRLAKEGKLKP
Latent membrane protein 1, sequence (P03230 whole entry): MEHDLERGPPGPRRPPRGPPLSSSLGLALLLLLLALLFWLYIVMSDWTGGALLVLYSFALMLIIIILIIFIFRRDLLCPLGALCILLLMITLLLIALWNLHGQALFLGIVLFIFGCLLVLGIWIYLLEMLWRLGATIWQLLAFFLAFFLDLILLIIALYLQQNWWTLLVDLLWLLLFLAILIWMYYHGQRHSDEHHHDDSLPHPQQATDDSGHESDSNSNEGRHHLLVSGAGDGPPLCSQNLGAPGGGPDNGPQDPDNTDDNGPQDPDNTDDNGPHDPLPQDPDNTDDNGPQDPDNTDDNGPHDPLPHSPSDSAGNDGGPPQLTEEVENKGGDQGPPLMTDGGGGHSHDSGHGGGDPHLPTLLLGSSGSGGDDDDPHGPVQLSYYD
CAAX prenyl protease 1, sequence (P47154 whole entry): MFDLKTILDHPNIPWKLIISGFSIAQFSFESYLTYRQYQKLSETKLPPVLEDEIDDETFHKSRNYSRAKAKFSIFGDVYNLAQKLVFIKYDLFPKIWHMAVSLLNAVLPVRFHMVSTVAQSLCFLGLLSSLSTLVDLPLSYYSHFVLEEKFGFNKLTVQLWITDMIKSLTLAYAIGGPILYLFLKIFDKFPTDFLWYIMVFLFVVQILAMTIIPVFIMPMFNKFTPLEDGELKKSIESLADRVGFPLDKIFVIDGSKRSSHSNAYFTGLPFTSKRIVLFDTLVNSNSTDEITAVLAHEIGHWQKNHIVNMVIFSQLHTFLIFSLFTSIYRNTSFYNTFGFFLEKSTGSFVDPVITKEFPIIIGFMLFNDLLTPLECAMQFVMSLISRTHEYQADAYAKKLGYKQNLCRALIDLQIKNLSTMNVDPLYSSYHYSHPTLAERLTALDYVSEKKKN
G-protein coupled receptor 55, sequence (Q9Y2T6 whole entry): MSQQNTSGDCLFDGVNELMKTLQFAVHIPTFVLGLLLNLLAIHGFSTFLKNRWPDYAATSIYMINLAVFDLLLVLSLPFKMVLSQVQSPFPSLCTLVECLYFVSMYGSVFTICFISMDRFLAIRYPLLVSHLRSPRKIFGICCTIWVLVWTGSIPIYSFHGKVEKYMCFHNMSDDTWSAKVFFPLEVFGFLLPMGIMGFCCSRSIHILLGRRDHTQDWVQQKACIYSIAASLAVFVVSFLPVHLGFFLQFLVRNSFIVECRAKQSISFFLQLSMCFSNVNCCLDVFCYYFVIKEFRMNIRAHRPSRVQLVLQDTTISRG

In the case of `COc1ccc(C2/C=C\CN(C(=O)c3ccc(C)cc3)[C@H](Cc3ccccc3)C(=O)N2Cc2ccc(F)cc2)cc1` (some centres not stated), the AC50 (usually the concentration giving half of the maximal activity seen) is 37.3 µM (active) on CAAX prenyl protease 1; 0.772 µM (active) in experiment [1]; 7.14 µM (active) in the experiment with INS1; 18.1 µM (active) in experiment [2]; > 70 µM (inactive) in experiment [4]; 35.1 µM (active) on CAAX prenyl protease 2. In addition, the EC50 in [3] was > 32 µM (inactive).

Consider `CC1CCN(c2ccc3c(c2)S(=O)(=O)c2cccc(C(=O)NCc4ccc(F)cc4)c2C3=O)CC1`, for which the figures for the EC50 in experiment [5], in [6] and in [7] were 38 µM (inactive), > 99 µM (inactive) and 5.16 µM (active), respectively.

Take `COc1ccc(C(=O)C(CN2CCOCC2)c2ccccc2)cc1F` (configuration not stated): the EC50 in [8] was 5.54 µM (active); in [9] it was 8.65 µM (active); in experiment [10], 2.19 µM (active); in experiment [11] it was 1.31 µM (active). Further, the figures for the AC50 (with HEK293; in [12]) were 13.2 µM (active) and 5.06 µM (active), respectively.

For the compound `COc1cccc2sc(NC(=O)c3cccc(C(F)(F)F)c3)nc12`, the IC50 (in general, the concentration at which inhibition is half-maximal) in experiment [13] is > 66 µM (inactive).
